Reference: PMC6272684, “Synthesis, Antiproliferative and Antifungal Activities of 1,2,3-Triazole-Substituted Carnosic Acid and Carnosol Derivatives” (Molecules, 2015)

Tests used:
[1] = test system: C. albicans ATCC 10231; test: Antifungal broth microdilution (CLSI M27-A3), growth inhibition; assay type: cell-based, Candida albicans; conditions: for MIC50 (minimum concentration to inhibit 50% of fungal growth), C. albicans: C. albicans ATCC 10231
Procedure: (§1) The antifungal properties of compounds 1–24 against two clinical important fungal species, C. albicans ATCC 10231 and C. neoformans ATCC 32264 were investigated. Results were expressed as the percentages of inhibition of each fungus in the range 250–3.9 μg∙mL^−1 by using the standardized microbroth dilution method M-27A3 of Clinical and Laboratory Standards Institute which assures reliable and reproducible results.
(§2) For the antifungal evaluation, standardized strains from the American Type Culture Collection (ATCC), Rockville, MD, USA, were used. The microorganisms included yeasts (Candida albicans ATCC 10231 and Cryptococcus neoformans ATCC 32264). Strains were grown on Sabouraud-chloramphenicol agar slants for 48 h at 30 °C, maintained on slopes of Sabouraud-dextrose agar (SDA, Oxoid), and subcultured every 15 days to prevent pleomorphic transformations. Inocula of cell or spore suspensions were obtained according to reported procedures and adjusted to 1–5 × 10^3 cells/spores with colony forming units (CFU)/mL [29].
(§3) Broth microdilution techniques were performed in 96-well microplates according to the Clinical and Laboratory Standards Institute Reference Method for Broth Dilution Antifungal Susceptibility Testing of Yeasts, Approved Standard M27-A3 [29]. For the assay, compound test wells (CTWs) were prepared with stock solutions of each compound in DMSO (maximum concentration ≤1%), diluted with RPMI-1640, to final concentrations of 250–3.9 μg∙mL^−1. An inoculum suspension (100 μL) was added to each well (final volume in the well = 200 μL). A growth control well (GCW) (containing medium, inoculum, and the same amount of DMSO used in a CTW, but compound-free) and a sterility control well (SCW) (sample, medium, and sterile water instead of inoculum) were included for each fungus tested. Microtiter trays were incubated in a moist, dark chamber at 30 °C for 48 h for both yeasts. Microplates were read in a VERSA Max microplate reader (Molecular Devices, Sunnyvale, CA, USA). Amphotericin B (Sigma-Aldrich) was used as positive control. Tests were performed in triplicate. Reduction of growth for each compound concentration was calculated as follows: % of inhibition = 100 − (OD 405 CTW − OD 405 SCW)/(OD 405 GCW − OD 405 SCW). The means ± SEM were the results of triplicate tests. Three endpoints were defined from the assay explained above and the dose-response curves. Minimum Inhibitory concentration (MIC) resulting in total fungal growth inhibition was named MIC100 while MIC50 was defined as the minimum concentration that inhibits 50% of the fungal growth.

[2] = test system: C. neoformans ATCC 32264; test: as above; assay type: cell-based, Cryptococcus neoformans; conditions: for MIC50 (minimum concentration to inhibit 50% of fungal growth), C. neoformans: C. neoformans ATCC 32264
Procedure: as §1, §2, §3

Row | Compound | Inhibition percentage against C. albicans ATCC 10231 ([1]; 3.9 μg∙mL^−1, 48 h) | Inhibition percentage against C. albicans ATCC 10231 ([1]; 7.8 μg∙mL^−1, 48 h) | Inhibition percentage against C. albicans ATCC 10231 ([1]; 15.6 μg∙mL^−1, 48 h) | Inhibition percentage against C. albicans ATCC 10231 ([1]; 62.5 μg∙mL^−1, 48 h) | Inhibition percentage against C. albicans ATCC 10231 ([1]; 125 μg∙mL^−1, 48 h) | Inhibition percentage against C. albicans ATCC 10231 ([1]; 250 μg∙mL^−1, 48 h) | Inhibition percentage against C. albicans ATCC 10231 ([1]; 31. μg∙mL^−1, 48 h) | MIC50 (minimum concentration to inhibit 50% of fungal growth), C. albicans [1] | Inhibition percentage against C. neoformans ATCC 32264 ([2]; 3.9 μg∙mL^−1, 48 h) | Inhibition percentage against C. neoformans ATCC 32264 ([2]; 7.8 μg∙mL^−1, 48 h) | Inhibition percentage against C. neoformans ATCC 32264 ([2]; 15.6 μg∙mL^−1, 48 h) | Inhibition percentage against C. neoformans ATCC 32264 ([2]; 31.2 μg∙mL^−1, 48 h) | Inhibition percentage against C. neoformans ATCC 32264 ([2]; 62.5 μg∙mL^−1, 48 h) | Inhibition percentage against C. neoformans ATCC 32264 ([2]; 125 μg∙mL^−1, 48 h) | Inhibition percentage against C. neoformans ATCC 32264 ([2]; 250 μg∙mL^−1, 48 h) | MIC50 (minimum concentration to inhibit 50% of fungal growth), C. neoformans [2]
1 | CC(C)c1cc2c(c(OC(=O)CCCc3cn(CSc4ccccc4)nn3)c1OC(=O)CCCc1cn(CSc3ccccc3)nn1)C13CCCC(C)(C)C1CC2OC3=O (stereo not drawn) [Compound 18, (7β)-11,12-O-(4-(((1-phenylthio)methyl)-1H-1,2,3-triazol-4-yl)-butanoyloxy)-7,20-epoxyabieta-8,11,13-trien-20-one] | 1.0 ± 0.1% | 2.5 ± 0.2% | 2.8 ± 1.0% | 18.3 ± 0.1% | 35.4 ± 2.1% | 57.9 ± 1.0% | 11.5 ± 1.8% | 250 µg/mL | 0.0% | 0.0% | 0.0% | 0.0% | 0.0% | 11.8 ± 0.6% | 44.3 ± 1.9% | >250 µg/mL
2 | COC(=O)C12CCCC(C)(C)C1CCc1cc(C(C)C)c(OC(=O)CCc3cn(CSc4ccccc4)nn3)c(OC(=O)CCc3cn(CSc4ccccc4)nn3)c12 (stereo not shown) [Compound 9, Methyl(11,12-O-(3-(((1-phenylthio)methyl)-1H-1,2,3-triazol-4-yl)-propanoyloxy)-abieta-8,11,13-triene)-20-oate] | 0.0% | 0.0% | 3.5 ± 0.3% | 9.4 ± 0.7% | 19.2 ± 0.1% | 15.9 ± 1.2% | 4.7 ± 0.1% | >250 µg/mL | 0.0% | 5.1 ± 0.7% | 7.3 ± 0.4% | 13.7 ± 1.5% | 23.4 ± 1.3% | 53.6 ± 2.6% | 62.4 ± 3.8% | 125 µg/mL
3 | COC(=O)C12CCCC(C)(C)C1CCc1cc(C(C)C)c(OC(=O)CCCc3cn(Cc4ccc([N+](=O)[O-])cc4)nn3)c(OC(=O)CCCc3cn(Cc4ccc([N+](=O)[O-])cc4)nn3)c12 (stereo not shown) [Compound 16, Methyl(11,12-O-(4-(1-(4-nitrobenzyl)-1H-1,2,3-triazol-4-yl)-butanoyloxy)-abieta-8,11,13-triene)-20-oate] | 0.0% | 0.8 ± 0.1% | 2.3 ± 0.1% | 7.2 ± 0.1% | 11.7 ± 0.5% | 21.1 ± 2.4% | 3.4 ± 0.5% | >250 µg/mL | 0.0% | 3.5 ± 0.4% | 5.0 ± 0.4% | 7.9 ± 0.1% | 14.5 ± 0.2% | 35.5 ± 0.4% | 36.9 ± 0.8% | >250 µg/mL
4 | CC(C)c1cc2c(c(OC(=O)CCCc3cn(Cc4ccc(Br)cc4)nn3)c1OC(=O)CCCc1cn(Cc3ccc(Br)cc3)nn1)C13CCCC(C)(C)C1CC2OC3=O (stereo not drawn) [Compound 22, (7β)-11,12-O-(4-(1-(4-bromobenzyl)-1H-1,2,3-triazol-4-yl)-butanoyloxy)-7,20-epoxyabieta-8,11,13-trien-20-one] | 0.0% | 2.9 ± 0.7% | 5.1 ± 0.4% | 7.0 ± 1.0% | 10.1 ± 0.8% | 12.5 ± 2.2% | 5.9 ± 0.2% | >250 µg/mL | 0.0% | 4.7 ± 0.8% | 4.8 ± 0.2% | 7.6 ± 0.9% | 28.5 ± 1.3% | 52.3 ± 2.3% | – | 125 µg/mL
5 | COC(=O)C12CCCC(C)(C)C1CCc1cc(C(C)C)c(OC(=O)CCCc3cn(Cc4ccccc4)nn3)c(OC(=O)CCCc3cn(Cc4ccccc4)nn3)c12 (stereo not shown) [Compound 12, Methyl(11,12-O-(4-(1-benzyl-1H-1,2,3-triazol-4-yl)-butanoyloxy)-abieta-8,11,13-triene)-20-oate] | 3.4 ± 0.3% | 3.6 ± 0.4% | 5.6 ± 1.9% | 14.9 ± 1.1% | 27.9 ± 0.1% | 50.0 ± 5.0% | 9.3 ± 2.6% | 250 µg/mL | 0.0% | 0.0% | 7.7 ± 1.6% | 9.6 ± 0.8% | 17.3 ± 0.2% | 67.5 ± 0.7% | 63.1 ± 2.1% | 125 µg/mL
